Values after ≈ are worked out from the molar mass of the structure shown. Where two headings read alike, the source gives them in different places.
How the values were obtained:
[1] = for half-life: human liver microsomes, standard 60 min incubation; for metabolites observed by LC-MS: stored human liver microsomal incubates
[2] = system: vitamin K epoxide reductase (VKOR); experiment: VKOR inhibition in FIXgla-PC/HEK293 reporter cells; details: relative to (R)-enantiomer of cubane analogue
[3] = clinically relevant warfarin analogue; cited from earlier work
[4] = Chemical stability on storage; format: physicochemical; details: stored at 8 °C for approximately two years, 1H NMR analysis
[5] = traditional octanol water partition coefficient determination
adult male C57BL6/J mice = experiment: Open field test; format: in vivo; details: OFT, compared to vehicle (water)
mouse = details: earlier in vivo mouse studies; cited from earlier work
[6] = system: breast cancer (MCF7) cell line; experiment: Activity against breast cancer cell line; format: cell-based; details: for IC50: MCF7 breast cancer cell line
[7] = system: melanoma (MM96L) cell line; experiment: Activity against melanoma cell line; format: cell-based
scabies mites = experiment: Scabies mite mortality; details: at 8 h; same concentration as benzyl benzoate

## CC(=O)C[C@H](C1=CC=CC=CC=C1)c1c(O)c2ccccc2oc1=O [(R)-COT]
[1]
  half-life: 2.17 ± 0.333 h
  metabolites observed by LC-MS: significant quantities of an M+2 metabolite

## CC(=O)C[C@@H](C1=CC=CC=CC=C1)c1c(O)c2ccccc2oc1=O [(S)-COT]
[1]
  half-life: 1.83 ± 0.633 h
  metabolites observed by LC-MS: substantial peaks exhibiting an M+16

## CC(=O)CC(c1c(O)c2ccccc2oc1=O)C12C3C4C5C3C1C5C42 [(S)-cubane analogue]
[2]
  VKOR inhibition, fold lower activity than the (R)-enantiomer: ca. 3 fold

## CC(=O)CC(c1ccc([N+](=O)[O-])cc1)c1c(O)c2ccccc2oc1=O (stereo not shown) [acenocoumarol]
[3]
  half-life: 10 h

## CC1(O)CC(C2=CC=CC=CC=C2)c2c(c3ccccc3oc2=O)O1 (stereo not shown) [compound 8, COT-warfarin]
[4]
  chemical stability: no signs of decomposition
[5]
  log P: 2.82

## O=C(NCCN1CCOCC1)c1ccc(Cl)cc1 [compound 9, moclobemide]
Adult male C57BL6/J mice
  locomotor profile / total distance travelled: decrease the total distance travelled by the same amount compared to the vehicle

## O=C(CCCCCCC(=O)Nc1ccccc1)NO [compound 11, suberanilohydroxamic acid, reference compound]
[5]
  log P: 0.99
mouse
  in vivo activity: identical activity

## O=C(CCCCCCC(=O)NC12C3C4C5C3C1C5C42)NO (stereo not shown) [compound 16]
[6]
  IC50: 0.053 ± 0.004 µg/mL (≈ 0.183 µM)
[7]
  IC50: 0.137 ± 0.005 µg/mL (≈ 0.472 µM)
[5]
  log P: 1.52
mouse
  in vivo activity: identical activity

## O=C(CCCCCCC(=O)NC1=CC=CC=CC=C1)NO [compound 23]
[6]; MCF7 and MM96L cell lines, relative to SAHA
  fold less active than SAHA: ca. 2 fold
[6]; MCF7 and MM96L cell lines, relative to cubane derivative 16
  fold more active than 16: ca. 2 fold
[6]
  IC50: 0.037 ± 0.003 µg/mL (≈ 0.127 µM)
[7]
  IC50: 0.073 ± 0.008 µg/mL (≈ 0.251 µM)
[5]
  log P: 1.38

## O=C(OCc1ccccc1)C1=CC=CC=CC=C1 [compound 26]
[5]
  log P: 3.34
Scabies mites
  mite mortality: 75%

From article PMC6436534 (Chemistry (Weinheim an der Bergstrasse, Germany), 2019)
